ChEMBL document CHEMBL3227999, “Synthesis and biological properties of N2-substituted spin-labeled analogues of actinomycin D” (J Med Chem, 1979)
Calls of active or inactive are those of the source. The rule behind the calls is not given here.

Key:
Calf thymus DNA [1] = experiment: Binding affinity to calf thymus DNA at 1 x 10^-5 M after 30 mins by circular dichroism analysis; type: nucleic-acid assay; conditions: Bos taurus
Calf thymus DNA [2] = experiment: Binding affinity to calf thymus DNA at 1 x 10^-5 M by thermal denaturation assay; type: nucleic-acid assay; conditions: Bos taurus
Calf thymus DNA [3] = experiment: Binding affinity to calf thymus DNA at 1 x 10^-5 M by lectron spin resonance analysis; type: nucleic-acid assay; conditions: Bos taurus
[4] = molecular target: T1, Bacterial DNA-directed RNA polymerase (Bacteria) (UniProt P0A8V2+P0A7Z4+P0A8T7+P0A800); experiment: Inhibition of Escherichia coli DNA-dependent RNA polymerase at 20 ug/ml using calf thymus DNA as primer; type: protein-complex assay
[5] = molecular target: T1, Bacterial DNA-directed RNA polymerase (Bacteria); experiment: Inhibition of Escherichia coli DNA-dependent RNA polymerase at 20 ug/ml using Micrococcus luteus DNA as primer; type: protein-complex assay
[6] = molecular target: T1, Bacterial DNA-directed RNA polymerase (Bacteria); experiment: Inhibition of Escherichia coli DNA-dependent RNA polymerase at 10 ug/ml using calf thymus DNA as primer; type: protein-complex assay
[7] = molecular target: T1, Bacterial DNA-directed RNA polymerase (Bacteria); experiment: Inhibition of Escherichia coli DNA-dependent RNA polymerase at 10 ug/ml using Micrococcus luteus DNA as primer; type: protein-complex assay
[8] = molecular target: T1, Bacterial DNA-directed RNA polymerase (Bacteria); experiment: Inhibition of Escherichia coli DNA-dependent RNA polymerase at 5 ug/ml using calf thymus DNA as primer; type: protein-complex assay
[9] = molecular target: T1, Bacterial DNA-directed RNA polymerase (Bacteria); experiment: Inhibition of Escherichia coli DNA-dependent RNA polymerase at 5 ug/ml using Micrococcus luteus DNA as primer; type: protein-complex assay
[10] = molecular target: T1, Bacterial DNA-directed RNA polymerase (Bacteria); experiment: Inhibition of Escherichia coli DNA-dependent RNA polymerase at 2.5 ug/ml using calf thymus DNA as primer; type: protein-complex assay
[11] = molecular target: T1, Bacterial DNA-directed RNA polymerase (Bacteria); experiment: Inhibition of Escherichia coli DNA-dependent RNA polymerase at 2.5 ug/ml using Micrococcus luteus DNA as primer; type: protein-complex assay
L1210 [12] = experiment: Cytotoxicity against mouse L1210 cells at 10 ug/ml after 48 hrs; type: functional; conditions: L1210, 48 h
L1210 [13] = experiment: Cytotoxicity against mouse L1210 cells at 5 ug/ml after 48 hrs; type: functional; conditions: L1210, 48 h
L1210 [14] = experiment: Cytotoxicity against mouse L1210 cells at 1 ug/ml after 48 hrs; type: functional; conditions: L1210, 48 h
L1210 [15] = experiment: Cytotoxicity against mouse L1210 cells at 0.5 ug/ml after 48 hrs; type: functional; conditions: L1210, 48 h
L1210 [16] = experiment: Cytotoxicity against mouse L1210 cells at 0.1 ug/ml after 48 hrs; type: functional; conditions: L1210, 48 h
L1210 [17] = experiment: Cytotoxicity against mouse L1210 cells at 0.05 ug/ml after 48 hrs; type: functional; conditions: L1210, 48 h
L1210 [18] = experiment: Cytotoxicity against mouse L1210 cells at 0.01 ug/ml after 48 hrs; type: functional; conditions: L1210, 48 h
L1210 [19] = experiment: Cytotoxicity against mouse L1210 cells at 0.001 ug/ml after 48 hrs; type: functional; conditions: L1210, 48 h
P388 [20] = experiment: Antitumor activity against mouse P388 cells allografted in CDF1 mouse assessed as survival at 6 mg/kg, ip administered on day 1, 5 and 9; type: functional; conditions: route intraperitoneal
P388 [21] = experiment: Antitumor activity against mouse P388 cells allografted in CDF1 mouse assessed as survival at 4 mg/kg, ip administered on day 1, 5 and 9; type: functional; conditions: route intraperitoneal
P388 [22] = experiment: Antitumor activity against mouse P388 cells allografted in CDF1 mouse assessed as survival at 2.7 mg/kg, ip administered on day 1, 5 and 9; type: functional; conditions: route intraperitoneal
P388 [23] = experiment: Antitumor activity against mouse P388 cells allografted in CDF1 mouse assessed as survival at 1.8 mg/kg, ip administered on day 1, 5 and 9; type: functional; conditions: route intraperitoneal
P388 [24] = experiment: Antitumor activity against mouse P388 cells allografted in CDF1 mouse assessed as survival at 1.2 mg/kg, ip administered on day 1, 5 and 9; type: functional; conditions: route intraperitoneal
P388 [25] = experiment: Antitumor activity against mouse P388 cells allografted in CDF1 mouse assessed as survival at 0.8 mg/kg, ip administered on day 1, 5 and 9; type: functional; conditions: route intraperitoneal
Mus musculus [26] = experiment: Toxicity in mouse P388 cells allografted CDF1 mouse assessed as weight loss at 6 mg/kg, ip administered on day 1, 5 and 9; type: organism-based; parameters: dose 6 mg/kg, route intraperitoneal; conditions: in vivo
[27] = molecular target: Bacterial DNA-directed RNA polymerase (Bacteria, UniProt P0A7Z4+P0A800+P0A8T7+P0A8V2); experiment: Inhibition of Escherichia coli DNA-dependent RNA polymerase; type: protein-complex assay
Mus musculus [28] = experiment: Toxicity in mouse P388 cells allografted CDF1 mouse assessed as mortality at 6 mg/kg, ip administered on day 1, 5 and 9; type: organism-based; parameters: dose 6 mg/kg, route intraperitoneal; conditions: in vivo
Mus musculus [29] = experiment: Toxicity in mouse P388 cells allografted CDF1 mouse assessed as weight loss at 4 mg/kg, ip administered on day 1, 5 and 9; type: organism-based; parameters: dose 4 mg/kg, route intraperitoneal; conditions: in vivo

T1 sequence (P0A7Z4 whole entry partner): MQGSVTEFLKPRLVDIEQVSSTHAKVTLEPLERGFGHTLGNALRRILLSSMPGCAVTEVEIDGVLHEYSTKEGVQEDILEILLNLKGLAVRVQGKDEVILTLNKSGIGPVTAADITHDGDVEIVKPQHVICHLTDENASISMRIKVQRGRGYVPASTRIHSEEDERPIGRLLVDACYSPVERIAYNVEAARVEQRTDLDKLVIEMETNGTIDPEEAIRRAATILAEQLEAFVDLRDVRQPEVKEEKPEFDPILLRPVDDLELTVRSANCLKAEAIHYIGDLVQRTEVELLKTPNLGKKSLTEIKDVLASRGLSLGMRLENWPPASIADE
T1 sequence (P0A800 2-91 partner limits assumed): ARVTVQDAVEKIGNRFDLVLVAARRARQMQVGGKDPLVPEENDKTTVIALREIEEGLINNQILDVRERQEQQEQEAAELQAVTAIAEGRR
T1 sequence (P0A8T7 whole entry partner): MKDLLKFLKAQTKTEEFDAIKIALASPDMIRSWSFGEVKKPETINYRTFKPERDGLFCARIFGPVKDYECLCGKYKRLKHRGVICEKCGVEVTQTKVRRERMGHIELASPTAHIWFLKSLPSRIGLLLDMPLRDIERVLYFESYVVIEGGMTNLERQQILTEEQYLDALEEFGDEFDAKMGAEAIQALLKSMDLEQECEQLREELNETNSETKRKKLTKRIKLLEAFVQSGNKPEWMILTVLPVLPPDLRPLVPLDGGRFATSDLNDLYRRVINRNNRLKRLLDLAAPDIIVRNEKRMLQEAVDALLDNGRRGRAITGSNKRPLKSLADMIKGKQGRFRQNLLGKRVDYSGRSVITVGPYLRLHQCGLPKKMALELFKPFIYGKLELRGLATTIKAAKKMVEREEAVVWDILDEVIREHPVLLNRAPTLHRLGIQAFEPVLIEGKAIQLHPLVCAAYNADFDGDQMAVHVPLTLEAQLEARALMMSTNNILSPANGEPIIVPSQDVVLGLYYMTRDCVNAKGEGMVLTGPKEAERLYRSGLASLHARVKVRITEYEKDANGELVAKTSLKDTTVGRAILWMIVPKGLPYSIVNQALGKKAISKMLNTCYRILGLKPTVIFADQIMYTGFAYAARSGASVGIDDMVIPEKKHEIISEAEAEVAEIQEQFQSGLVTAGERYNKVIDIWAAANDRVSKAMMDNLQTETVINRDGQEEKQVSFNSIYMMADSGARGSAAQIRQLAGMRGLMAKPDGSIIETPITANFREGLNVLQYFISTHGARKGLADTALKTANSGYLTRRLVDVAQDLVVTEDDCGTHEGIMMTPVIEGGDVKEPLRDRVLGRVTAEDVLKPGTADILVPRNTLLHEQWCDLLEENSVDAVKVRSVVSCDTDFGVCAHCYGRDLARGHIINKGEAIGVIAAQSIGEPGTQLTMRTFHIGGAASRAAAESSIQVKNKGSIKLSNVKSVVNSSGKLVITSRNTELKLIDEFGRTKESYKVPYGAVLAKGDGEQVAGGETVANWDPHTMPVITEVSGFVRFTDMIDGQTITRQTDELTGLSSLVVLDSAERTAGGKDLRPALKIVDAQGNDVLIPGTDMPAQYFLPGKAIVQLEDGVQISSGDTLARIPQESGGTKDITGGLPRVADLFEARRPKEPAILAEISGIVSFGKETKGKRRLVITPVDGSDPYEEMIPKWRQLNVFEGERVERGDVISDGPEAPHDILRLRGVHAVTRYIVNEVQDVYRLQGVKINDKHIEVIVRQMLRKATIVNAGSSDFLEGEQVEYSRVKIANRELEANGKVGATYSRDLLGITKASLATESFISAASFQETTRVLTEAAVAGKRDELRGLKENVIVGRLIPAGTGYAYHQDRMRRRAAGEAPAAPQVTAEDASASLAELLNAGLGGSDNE
T1 sequence (P0A8V2 whole entry): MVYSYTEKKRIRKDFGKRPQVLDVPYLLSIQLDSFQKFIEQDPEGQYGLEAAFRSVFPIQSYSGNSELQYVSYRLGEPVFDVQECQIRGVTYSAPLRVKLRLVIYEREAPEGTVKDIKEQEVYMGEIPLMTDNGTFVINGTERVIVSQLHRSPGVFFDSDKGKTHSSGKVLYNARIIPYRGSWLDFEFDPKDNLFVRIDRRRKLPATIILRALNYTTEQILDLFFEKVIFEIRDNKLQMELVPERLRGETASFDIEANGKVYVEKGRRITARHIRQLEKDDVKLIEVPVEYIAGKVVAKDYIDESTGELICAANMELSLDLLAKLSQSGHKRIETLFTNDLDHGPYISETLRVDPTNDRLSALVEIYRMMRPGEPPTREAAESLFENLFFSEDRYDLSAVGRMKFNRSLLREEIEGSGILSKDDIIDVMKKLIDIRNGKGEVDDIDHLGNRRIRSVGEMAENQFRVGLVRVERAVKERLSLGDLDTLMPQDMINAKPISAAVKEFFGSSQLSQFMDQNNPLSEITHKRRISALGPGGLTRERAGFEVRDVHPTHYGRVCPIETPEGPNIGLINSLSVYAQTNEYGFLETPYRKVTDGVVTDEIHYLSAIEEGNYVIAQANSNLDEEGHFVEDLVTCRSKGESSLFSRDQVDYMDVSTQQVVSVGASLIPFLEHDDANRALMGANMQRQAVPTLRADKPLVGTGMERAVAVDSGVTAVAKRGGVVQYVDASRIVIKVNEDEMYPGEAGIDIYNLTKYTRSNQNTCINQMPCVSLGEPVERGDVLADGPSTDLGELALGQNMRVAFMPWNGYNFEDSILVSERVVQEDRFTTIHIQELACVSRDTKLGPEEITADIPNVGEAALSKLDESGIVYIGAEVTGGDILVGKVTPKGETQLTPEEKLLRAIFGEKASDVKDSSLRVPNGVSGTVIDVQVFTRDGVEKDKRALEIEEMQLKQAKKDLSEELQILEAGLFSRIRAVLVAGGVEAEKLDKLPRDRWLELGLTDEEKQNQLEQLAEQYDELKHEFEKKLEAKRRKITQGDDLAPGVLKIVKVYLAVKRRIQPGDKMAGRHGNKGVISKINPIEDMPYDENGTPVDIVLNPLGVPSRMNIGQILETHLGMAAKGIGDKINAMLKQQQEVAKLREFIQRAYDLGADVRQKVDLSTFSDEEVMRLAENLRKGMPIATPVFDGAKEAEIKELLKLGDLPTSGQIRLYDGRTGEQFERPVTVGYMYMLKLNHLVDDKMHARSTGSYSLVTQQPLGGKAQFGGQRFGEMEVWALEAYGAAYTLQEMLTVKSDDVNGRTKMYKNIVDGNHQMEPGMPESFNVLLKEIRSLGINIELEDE

Structure (SMILES)	Activity (Calf thymus DNA [1])	ΔTm (Calf thymus DNA [2]) [°C]	Activity (Calf thymus DNA [3])	inhibition [4] [%]	inhibition [5] [%]	inhibition [6] [%]	inhibition [7] [%]	inhibition [8] [%]	inhibition [9] [%]	inhibition [10] [%]	inhibition [11] [%]	inhibition at 10 µg/mL (L1210 [12]) [%]	inhibition at 5 µg/mL (L1210 [13]) [%]	inhibition at 1 µg/mL (L1210 [14]) [%]	inhibition at 0.5 µg/mL (L1210 [15]) [%]	inhibition at 0.1 µg/mL (L1210 [16]) [%]	inhibition at 0.05 µg/mL (L1210 [17]) [%]	inhibition at 0.01 µg/mL (L1210 [18]) [%]	inhibition at 0.001 µg/mL (L1210 [19]) [%]	Survival (P388 [20]) [days]	other results
Cc1c2oc3c(C)ccc(C(=O)N[C@@H]4C(=O)N[C@H](C(C)C)C(=O)N5CCC[C@H]5C(=O)N(C)CC(=O)N(C)[C@@H](C(C)C)C(=O)O[C@@H]4C)c3nc-2c(C(=O)N[C@@H]2C(=O)N[C@H](C(C)C)C(=O)N3CCC[C@H]3C(=O)N(C)CC(=O)N(C)[C@@H](C(C)C)C(=O)O[C@@H]2C)c(NC2CC(C)(C)N([O])C(C)(C)C2)c1=O	inactive	1.7	inactive	78	77	62	57	41	33	37	21	98	96	57	39	21	10	0	0	29	T/C (P388 [20]): 276%; Survival (P388 [21]): 26 days; T/C (P388 [21]): 248%; Survival (P388 [22]): 19 days; T/C (P388 [22]): 181%; Survival (P388 [23]): 20 days; T/C (P388 [23]): 190%; Survival (P388 [24]): 17 days; T/C (P388 [24]): 162%; Survival (P388 [25]): 17 days; T/C (P388 [25]): 162%
Cc1c2oc3c(C)ccc(C(=O)N[C@@H]4C(=O)N[C@H](C(C)C)C(=O)N5CCC[C@H]5C(=O)N(C)CC(=O)N(C)[C@@H](C(C)C)C(=O)O[C@@H]4C)c3nc-2c(C(=O)N[C@@H]2C(=O)N[C@H](C(C)C)C(=O)N3CCC[C@H]3C(=O)N(C)CC(=O)N(C)[C@@H](C(C)C)C(=O)O[C@@H]2C)c(NC2CC(C)(C)[N+]([O-])C(C)(C)C2)c1=O																					Activity (Mus musculus [26]): Toxic
Cc1c2oc3c(C)ccc(C(=O)N[C@@H]4C(=O)N[C@H](C(C)C)C(=O)N5CCC[C@H]5C(=O)N(C)CC(=O)N(C)[C@@H](C(C)C)C(=O)O[C@@H]4C)c3nc-2c(C(=O)N[C@@H]2C(=O)N[C@H](C(C)C)C(=O)N3CCC[C@H]3C(=O)N(C)CC(=O)N(C)[C@@H](C(C)C)C(=O)O[C@@H]2C)c(NCCCNC2CC(C)(C)N([O])C(C)(C)C2)c1=O	Active	3.5	Active	79	62	49	32	78	52	28	22	98	69	45	33	16	0	0	0	29	T/C (P388 [20]): 171%; Survival (P388 [21]): 18 days; T/C (P388 [21]): 171%; Survival (P388 [22]): 18 days; T/C (P388 [22]): 181%; Survival (P388 [23]): 19 days; T/C (P388 [23]): 143%; Survival (P388 [24]): 15 days; T/C (P388 [24]): 143%; Survival (P388 [25]): 15 days
Cc1c2oc3c(C)ccc(C(=O)N[C@@H]4C(=O)N[C@H](C(C)C)C(=O)N5CCC[C@H]5C(=O)N(C)CC(=O)N(C)[C@@H](C(C)C)C(=O)O[C@@H]4C)c3nc-2c(C(=O)N[C@@H]2C(=O)N[C@H](C(C)C)C(=O)N3CCC[C@H]3C(=O)N(C)CC(=O)N(C)[C@@H](C(C)C)C(=O)O[C@@H]2C)c(NCCCNC2CC(C)(C)[N+]([O-])C(C)(C)C2)c1=O																					IC50 [27]: 2730 nM; Activity (Mus musculus [26]): Toxic
Cc1c2oc3c(C)ccc(C(=O)N[C@@H]4C(=O)N[C@H](C(C)C)C(=O)N5CCC[C@H]5C(=O)N(C)CC(=O)N(C)[C@@H](C(C)C)C(=O)O[C@@H]4C)c3nc-2c(C(=O)N[C@@H]2C(=O)N[C@H](C(C)C)C(=O)N3CCC[C@H]3C(=O)N(C)CC(=O)N(C)[C@@H](C(C)C)C(=O)O[C@@H]2C)c(NCCNC2CC(C)(C)N([O])C(C)(C)C2)c1=O	inactive	2.8	inactive	88	91	81	78	61	56	43	42	99	98	71	62	41	15	0	0	8	T/C (P388 [20]): 76%; Survival (P388 [21]): 25 days; T/C (P388 [21]): 238%; Survival (P388 [22]): 19 days; T/C (P388 [22]): 181%; Survival (P388 [23]): 17 days; T/C (P388 [23]): 162%; Survival (P388 [24]): 16 days; T/C (P388 [24]): 152%; Survival (P388 [25]): 19 days; T/C (P388 [25]): 181%
Cc1c2oc3c(C)ccc(C(=O)N[C@@H]4C(=O)N[C@H](C(C)C)C(=O)N5CCC[C@H]5C(=O)N(C)CC(=O)N(C)[C@@H](C(C)C)C(=O)O[C@@H]4C)c3nc-2c(C(=O)N[C@@H]2C(=O)N[C@H](C(C)C)C(=O)N3CCC[C@H]3C(=O)N(C)CC(=O)N(C)[C@@H](C(C)C)C(=O)O[C@@H]2C)c(NCCNC2CC(C)(C)[N+]([O-])C(C)(C)C2)c1=O																					IC50 [27]: 2750 nM; Activity (Mus musculus [28]): Toxic; Activity (Mus musculus [29]): Toxic
